One assay has as its system MCF7. Briefly: Cytotoxicity against human MCF7 cells assessed as cell viability at 20 uM measured after 48 hrs by MTT assay relative to control. The assay is classed as functional. The conditions noted are these: MCF7, 48 h, read-out: Activity. (Formazan colour is commonly taken as a measure of viable cells.)
The next assay has as its system HeLa. Briefly: Cytotoxicity against human HeLa cells assessed as cell viability at 20 uM measured after 48 hrs by MTT assay relative to control. Format: functional. The conditions noted are these: read-out: Activity.
The test system of a further assay is HepG2. Briefly: Cytotoxicity against human HepG2 cells assessed as cell viability at 20 uM measured after 48 hrs by MTT assay relative to control. To be noted: HepG2, 48 h, read-out: Activity. The assay is classed as functional.
Assay [1] deals with HL-60. Briefly: Cytotoxicity against human HL60 cells assessed as cell viability at 20 uM measured after 48 hrs by MTT assay relative to control. Format: functional. The conditions noted are these: HL-60, 48 h, read-out: Activity.
For assay [2], the system named is HL-60. Briefly: Cytotoxicity against human HL60 cells assessed as reduction in cell viability measured after 48 hrs by MTT assay. Format: functional, cell-based. To be noted: HL-60, 48 h.

Drawing on ChEMBL document CHEMBL4346666, “Synthesis, mitochondrial localization of fluorescent derivatives of cinnamamide as anticancer agents” (Eur J Med Chem, 2019), this text covers viability and IC50 for 20 compounds.

With `CCN(CC)c1ccc2cc(C(=O)NCCCCNC(=O)/C(=C/c3cc(OC)c(OC)c(OC)c3)c3ccc(OC)cc3)c(=O)oc2c1`, the viability at 20 µM in the assay with MCF7 amounted to 84.9%; in the assay with HeLa it was 75%; in the assay with HepG2, 100%; with HL-60 [1], 51.3%.
Taken in the same sequence, the figures for `CCN(CC)c1ccc2cc(C(=O)N3CCN(C(=O)/C=C/c4ccc(OC)cc4)CC3)c(=O)oc2c1` were 98.1%, 81.6%, 98.9% and 85.6%.
As to `CCN(CC)c1ccc2cc(C(=O)NCCNC(=O)/C=C/c3ccc(OC)cc3)c(=O)oc2c1`, the half-inhibitory concentration (IC50) in the assay on HL-60 [2] is greater than 25 µM. The viability at 20 µM in the assay on MCF7 turned out to be 80.7%; in the assay on HeLa, 71.8%; in the assay with HepG2 it was 68.8%; with HL-60 [1], 78.5%.
The like results for `CCN(CC)c1ccc2cc(C(=O)NCCNC(=O)/C=C/c3cc(OC)c(OC)cc3OC)c(=O)oc2c1` were, in that order, 22.9 µM, 76.4%, 72.6%, 100% and 48.2%.
As to `CCN(CC)c1ccc2cc(C(=O)NCCCCCCNC(=O)/C=C/c3ccc(OC)cc3)c(=O)oc2c1`, the viability at 20 µM with MCF7 came out at 87.8%; in the assay with HeLa, 100%; with HepG2, 76.6%; in the assay on HL-60 [1], 99.8%.
In the case of `CCN(CC)c1ccc2cc(C(=O)N3CCN(C(=O)/C(=C/c4cc(OC)c(OC)c(OC)c4)c4ccc(OC)cc4)CC3)c(=O)oc2c1`, the viability at 20 µM was 100% in the assay on MCF7, 100% with HeLa, 100% with HepG2 and 74.3% in the assay on HL-60 [1].
Regarding `CCN(CC)c1ccc2cc(C(=O)NCCNC(=O)/C(=C/c3cc(OC)c(OC)c(OC)c3)c3ccc(OC)cc3)c(=O)oc2c1`, in the assay on HL-60 [2], the IC50 is 13.8 µM. Also, the viability at 20 µM in the assay on MCF7 was determined as 75.8%; in the assay with HeLa it was 75%; in the assay with HepG2 it was 100%; with HL-60 [1], 29.4%.
As to `CCN(CC)c1ccc2cc(C(=O)NCCCCNC(=O)/C=C/c3cc(OC)c(OC)c(OC)c3)c(=O)oc2c1`, the viability at 20 µM worked out at 93.8% in the assay on MCF7, 74.5% in the assay with HeLa, 93.8% in the assay on HepG2 and 56.3% in the assay with HL-60 [1].
Take `CCN(CC)c1ccc2cc(C(=O)NCCNC(=O)/C(=C/c3cc(OC)c(OC)c(OC)c3)c3ccc(C(F)(F)F)cc3)c(=O)oc2c1`: in the assay on HL-60 [2], the IC50 was greater than 25 µM. Besides, the viability at 20 µM in the assay with MCF7 is 79.1%; with HeLa it was 74%; in the assay with HepG2, 98.9%; in the assay on HL-60 [1], 54.2%.
On to `CCN(CC)c1ccc2cc(C(=O)N3CCN(C(=O)/C=C/c4cc(OC)c(OC)cc4OC)CC3)c(=O)oc2c1`, for which the viability at 20 µM with MCF7 is 91.6%; with HeLa, 84.6%; in the assay with HepG2, 99.6%; with HL-60 [1], 80.1%.
`CCN(CC)c1ccc2cc(C(=O)NCCNC(=O)CCc3cc(OC)c(OC)c(OC)c3)c(=O)oc2c1`: in the assay with HL-60 [2], the IC50 is greater than 25 µM. Also, the viability at 20 µM was found to be 78.2% in the assay on MCF7, 67.4% in the assay with HeLa, 66.8% in the assay on HepG2 and 80.4% in the assay on HL-60 [1].
Consider `CCN(CC)c1ccc2cc(C(=O)NCCCCCCNC(=O)/C=C/c3cc(OC)c(OC)c(OC)c3)c(=O)oc2c1`, for which the viability at 20 µM in the assay on MCF7 worked out at 91%; with HeLa it was 72.2%; in the assay on HepG2, 100%; in the assay with HL-60 [1], 43.5%.
The like results for `CCN(CC)c1ccc2cc(C(=O)NCCCCCCNC(=O)/C(=C/c3cc(OC)c(OC)c(OC)c3)c3ccc(OC)cc3)c(=O)oc2c1` were, in that order, 100%, 100%, 100% and 82.5%.
In the case of `CCN(CC)c1ccc2cc(C(=O)NCCNC(=O)/C(=C/c3cc(OC)c(OC)c(OC)c3)c3ccc(F)cc3)c(=O)oc2c1`, the IC50 in the assay with HL-60 [2] is 18.8 µM. For the same compound, the viability at 20 µM in the assay on MCF7 was 75.3%; with HeLa it was 84.7%; in the assay with HepG2 it was 96%; in the assay on HL-60 [1], 68.3%.
`CCN(CC)c1ccc2cc(C(=O)N3CCN(C(=O)/C(=C/c4cc(OC)c(OC)c(OC)c4)c4ccc(OC)c(OC)c4)CC3)c(=O)oc2c1`: the viability at 20 µM in the assay with MCF7 turned out to be 100%; in the assay with HeLa, 97.8%; with HepG2, 82.1%; with HL-60 [1] it was 80.3%.
On to `CCN(CC)c1ccc2cc(C(=O)N3CCN(C(=O)/C=C/c4cc(OC)c(OC)c(OC)c4)CC3)c(=O)oc2c1`, for which the viability at 20 µM in the assay with MCF7 came out at 100%; with HeLa, 82.6%; in the assay on HepG2, 97.2%; with HL-60 [1] it was 74.5%.
The like results for `CCN(CC)c1ccc2cc(C(=O)N3CCN(C(=O)/C=C/c4c(OC)cc(OC)cc4OC)CC3)c(=O)oc2c1` were, in that order, 94%, 78.2%, 88.7% and 75.3%.
Take `CCN(CC)c1ccc2cc(C(=O)NCCNC(=O)/C(=C/c3cc(OC)c(OC)c(OC)c3)c3ccc(OC)c(F)c3)c(=O)oc2c1`: the IC50 in the assay on HL-60 [2] is 15 µM. The viability at 20 µM in the assay on MCF7 is 100%; with HeLa, 99.7%; in the assay with HepG2 it was 100%; in the assay with HL-60 [1], 67.7%.
In the case of `CCN(CC)c1ccc2cc(C(=O)NCCNC(=O)/C=C/c3c(OC)cc(OC)cc3OC)c(=O)oc2c1`, the IC50 in the assay on HL-60 [2] was greater than 25 µM. Moreover, the viability at 20 µM with MCF7 came out at 72.1%; with HeLa it was 63.9%; in the assay on HepG2, 75.4%; with HL-60 [1], 68.9%.
Turning to `CCN(CC)c1ccc2cc(C(=O)NCCNC(=O)/C=C/c3cc(OC)c(OC)c(OC)c3)c(=O)oc2c1`, in the assay on HL-60 [2], the half-inhibitory concentration (IC50) came to 23.3 µM. Further, the viability at 20 µM in the assay on MCF7 is 72.4%; in the assay on HeLa it was 61.4%; in the assay on HepG2, 72.9%; with HL-60 [1] it was 45.5%.

One may read the IC50 as the concentration needed to halve the response being measured.
